Results on three molecules are retold here after paper PMC3776780, “Dual p38/JNK Mitogen Activated Protein Kinase Inhibitors Prevent Ozone-Induced Airway Hyperreactivity in Guinea Pigs” (PLoS ONE, 2013).

SMILES strings stand for the structures. A value given as a limit tells only on which side of the number the result lay.

One assay deals with PDK1 (Homo sapiens, UniProt O15530). Nature of the assay: spectrophotometric coupled-enzyme kinase inhibition assay. The note with it: read-out: Ki or IC50 PDK1. The format is biochemical. The protocol: (§1) Affinity was measured using a kinase inhibition assay. Compounds were assayed for the inhibition of various kinases using a modification of a spectrophotometric coupled-enzyme assay. In this assay, a fixed concentration of activated kinase (10–40 nM) was incubated with various concentrations of a potential inhibitor dissolved in DMSO for 10 minutes at 30°C in a buffer containing 0.1 M HEPES, pH 7.5, containing 10 mM MgCl2, 2.5 mM phosphoenolpyruvate, 200 µM NADH, 2 mM DTT, 30 µg/mL pyruvate kinase, 10 µg/mL lactate dehydrogenase, and 200 µM–500 µM EGF receptor peptide. The EGF receptor peptide has the sequence […]. The reaction was initiated by the addition of ATP equal to the ATP Km of the kinase, and the assay plate is inserted into the spectrophotometer’s assay plate compartment that was maintained at 30°C. The decrease of absorbance at 340 nm was monitored as a function of time for 10 minutes. The rate data as a function of inhibitor concentration was either fit as an IC50 or to a competitive inhibition kinetic model to determine the compound Ki (see table 1).

For another assay, the target named is LCK (Homo sapiens, UniProt P06239). Described as above. The format is biochemical. The settings on record: read-out: Ki or IC50 LCK. Here is the method: as §1
For another assay, the target named is JNK3 (Homo sapiens, UniProt P53779). The assay is described as above. The note with it: ATP equal to Km, 30°C. It is filed as biochemical. The protocol: as §1
In a further assay the target is EphA. The description is as above. It is filed as biochemical. The note with it: read-out: Ki or IC50 EphA. Here is the method:
as §1

In a further assay the target is cMET (Homo sapiens, UniProt P08581). The description is as above. The note with it: read-out: Ki or IC50 cMET. The format is biochemical. The protocol: as §1
Another assay deals with p38 (Homo sapiens, UniProt Q16539). The description is as above. It is filed as biochemical. The note with it: ATP equal to Km, 30°C. Here is the method:
as §1

A further assay addresses COT (Homo sapiens, UniProt P41279). The description is as above. It is filed as biochemical. The settings on record: read-out: Ki or IC50 COT. Here is the method: as §1
For a further assay, the target named is FAK (Homo sapiens, UniProt Q05397). The assay is described as above. It is filed as biochemical. The note with it: read-out: Ki or IC50 FAK. Here is the method:
as §1

The target of the next assay is JNK2 (Homo sapiens, UniProt P45984). The description is as above. It is filed as biochemical. The settings on record: ATP equal to Km, 30°C. The protocol: as §1
The next assay concerns the target SYK (Homo sapiens, UniProt P43405). The description is as above. The format is biochemical. The note with it: read-out: Ki or IC50 SYK. The protocol: as §1
A further assay deals with TIE2 (Homo sapiens, UniProt Q02763). The description is as above. The settings on record: read-out: Ki or IC50 TIE2. It is filed as biochemical. The protocol: as §1
Assay [1] is described as follows: baseline cardiovascular and pulmonary parameters one day after ozone or air exposure. It is filed as in vivo, guinea pigs. The settings on record: ozone-exposed (2 ppm, 4 h), inhibitor 30 mg/kg ip 1 h before, one day post-exposure, mean ± SEM. The protocol: (§2) Guinea pigs were exposed to 2 ppm ozone or filtered air for 4 hours as described previously. Physiological measurements, airway inflammation, and histological measurements were made one day after a single ozone exposure.
(§3) Animals were given 30 mg/kg intraperitoneally of the dual p38 and JNK MAPK inhibitors V-05-013, V-05-014, or V-05-015 (Vertex Pharmaceuticals, Cambridge, MA) one hour before ozone exposure (Figure 1). These compounds were chosen because of their overall kinase selectivity profile. […] Inhibitors were dissolved in 25% DMSO in phosphate buffered saline (PBS). Air exposed control animals were given 25% DMSO in PBS one hour before ozone exposure.
One day after exposure to ozone, guinea pigs were anesthetized with 1.9 g/kg urethane i.p. (Sigma-Aldrich, St. Louis, MO). This dose produces a deep anesthesia lasting 8–10 hours though no experiments lasted longer than 4 hours.
(§4) Physiological measurements were made as previously described. The jugular veins were cannulated for intravenous administration of drugs and the right carotid artery was cannulated to measure heart rate and blood pressure. Both vagus nerves were cut and distal ends placed on platinum electrodes submerged in liquid paraffin. Animals were tracheostomized, ventilated (1 ml/100 g body weight, 100 breaths per minute) and paralyzed with a constant infusion of succinylcholine (10 µg/kg/min iv, Sigma-Aldrich). Pulmonary inflation pressure was measured at the trachea and bronchoconstriction was measured as the increase in pressure over basal inflation pressure produced by the ventilator.

Assay [2] relates to vagally mediated falls in heart rate. The experiment in a line: falls in heart rate in response to vagal stimulation. It is filed as in vivo, guinea pigs. The note with it: ozone-exposed, 30 mg/kg ip 1 h before ozone. The protocol: as §2, §3, §4
(§5) Electrical stimulation of both vagus nerves (10V, 0.2 ms pulse width, 1–25 Hz, 5 sec duration at 1 minute intervals) produced frequency dependent bronchoconstriction and bradycardia due to release of acetylcholine onto muscarinic receptors.

Assay [3] relates to M3 muscarinic receptor function on airway smooth muscle. Nature of the assay: smooth muscle M3 muscarinic receptor function (bronchoconstriction to intravenous acetylcholine). The format is in vivo, guinea pigs. The settings on record: acetylcholine 1–10 µg/kg iv; for effect on ozone-induced potentiation of bronchoconstriction to intravenous acetylcholine: ozone-exposed, 30 mg/kg ip 1 h before ozone. Here is the method: as §2, §3
Recovery from vagal stimulation was confirmed by pulmonary inflation pressure and heart rate returning to baseline before measuring smooth muscle M3 muscarinic receptor function (5–10 minutes after cessation of vagal stimulation). In vagotomized guinea pigs, M3 muscarinic receptor function on airway smooth muscle was tested by measuring bronchoconstriction after administration of acetylcholine (1–10 µg/kg iv, Sigma-Aldrich).

Assay [4] deals with ozone-induced airway hyperreactivity mediated by the vagus nerves. Nature of the assay: vagally induced bronchoconstriction (airway hyperreactivity). The settings on record: ozone-exposed, 30 mg/kg ip 1 h before ozone, one day post-exposure, vagal stimulation 1–25 Hz. It is filed as in vivo, guinea pigs. The protocol:
as §2, §3, §4, §5

The subject of assay [5] is neuronal M2 muscarinic receptors. Nature of the assay: neuronal M2 muscarinic receptor function (gallamine potentiation of vagally induced bronchoconstriction). The format is in vivo, guinea pigs. The note with it: ozone-exposed, 30 mg/kg ip 1 h before ozone, gallamine 0.1–10 mg/kg iv. Here is the method: as §2, §3
Recovery from administration of intravenous acetylcholine was confirmed by pulmonary inflation pressure and heart rate returning to baseline before measuring M2 muscarinic receptor function (5–10 minutes after the last dose of acetylcholine).

In another assay the target is JAK2 (Homo sapiens, UniProt O60674). The experiment in a line: spectrophotometric coupled-enzyme kinase inhibition assay. It is filed as biochemical. The note with it: read-out: Ki or IC50 JAK2. The protocol:
as §1

Another assay concerns the target FLT3 (Homo sapiens, UniProt P36888). Described as above. It is filed as biochemical. The settings on record: read-out: Ki or IC50 FLT3. The protocol:
as §1

A further assay has as its target ITK (Homo sapiens, UniProt Q08881). The assay is described as above. The format is biochemical. The settings on record: read-out: Ki or IC50 ITK. Here is the method: as §1

Sequence of p38 (Q16539 whole entry): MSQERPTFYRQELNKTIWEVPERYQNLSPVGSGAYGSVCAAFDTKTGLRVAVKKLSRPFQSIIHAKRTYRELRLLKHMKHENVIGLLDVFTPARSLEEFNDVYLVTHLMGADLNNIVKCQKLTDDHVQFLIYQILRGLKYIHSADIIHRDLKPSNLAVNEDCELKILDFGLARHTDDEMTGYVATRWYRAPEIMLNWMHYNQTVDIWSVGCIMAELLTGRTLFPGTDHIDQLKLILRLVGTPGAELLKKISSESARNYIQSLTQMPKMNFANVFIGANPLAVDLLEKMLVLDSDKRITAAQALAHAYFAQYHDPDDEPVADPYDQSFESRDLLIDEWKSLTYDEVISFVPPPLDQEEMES
Sequence of JNK2 (P45984 whole entry, species assumed): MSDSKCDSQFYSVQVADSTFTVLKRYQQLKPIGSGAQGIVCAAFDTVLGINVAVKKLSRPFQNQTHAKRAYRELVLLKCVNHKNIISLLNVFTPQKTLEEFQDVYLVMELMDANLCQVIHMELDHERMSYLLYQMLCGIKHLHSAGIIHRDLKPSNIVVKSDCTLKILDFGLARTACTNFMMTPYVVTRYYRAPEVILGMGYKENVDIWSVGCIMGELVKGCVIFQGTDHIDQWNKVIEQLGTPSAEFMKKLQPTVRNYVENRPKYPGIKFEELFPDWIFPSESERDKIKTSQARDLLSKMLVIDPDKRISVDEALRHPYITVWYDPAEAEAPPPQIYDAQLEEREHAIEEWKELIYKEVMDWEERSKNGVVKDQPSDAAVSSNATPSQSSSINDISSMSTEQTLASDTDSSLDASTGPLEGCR
Sequence of JNK3 (P53779 whole entry, species assumed): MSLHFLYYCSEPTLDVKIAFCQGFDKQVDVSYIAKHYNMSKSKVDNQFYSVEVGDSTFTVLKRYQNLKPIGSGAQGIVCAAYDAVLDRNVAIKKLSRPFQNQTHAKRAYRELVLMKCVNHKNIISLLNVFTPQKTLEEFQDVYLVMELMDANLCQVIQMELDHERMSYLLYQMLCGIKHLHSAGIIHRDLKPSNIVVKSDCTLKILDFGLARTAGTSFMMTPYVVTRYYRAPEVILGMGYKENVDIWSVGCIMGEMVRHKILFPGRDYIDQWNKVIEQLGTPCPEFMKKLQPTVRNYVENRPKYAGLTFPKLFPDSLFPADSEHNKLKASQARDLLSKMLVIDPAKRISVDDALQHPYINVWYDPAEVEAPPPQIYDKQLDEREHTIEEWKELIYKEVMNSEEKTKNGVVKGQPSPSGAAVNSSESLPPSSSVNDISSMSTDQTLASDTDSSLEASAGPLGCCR
Sequence of cMET (P08581 25-1390): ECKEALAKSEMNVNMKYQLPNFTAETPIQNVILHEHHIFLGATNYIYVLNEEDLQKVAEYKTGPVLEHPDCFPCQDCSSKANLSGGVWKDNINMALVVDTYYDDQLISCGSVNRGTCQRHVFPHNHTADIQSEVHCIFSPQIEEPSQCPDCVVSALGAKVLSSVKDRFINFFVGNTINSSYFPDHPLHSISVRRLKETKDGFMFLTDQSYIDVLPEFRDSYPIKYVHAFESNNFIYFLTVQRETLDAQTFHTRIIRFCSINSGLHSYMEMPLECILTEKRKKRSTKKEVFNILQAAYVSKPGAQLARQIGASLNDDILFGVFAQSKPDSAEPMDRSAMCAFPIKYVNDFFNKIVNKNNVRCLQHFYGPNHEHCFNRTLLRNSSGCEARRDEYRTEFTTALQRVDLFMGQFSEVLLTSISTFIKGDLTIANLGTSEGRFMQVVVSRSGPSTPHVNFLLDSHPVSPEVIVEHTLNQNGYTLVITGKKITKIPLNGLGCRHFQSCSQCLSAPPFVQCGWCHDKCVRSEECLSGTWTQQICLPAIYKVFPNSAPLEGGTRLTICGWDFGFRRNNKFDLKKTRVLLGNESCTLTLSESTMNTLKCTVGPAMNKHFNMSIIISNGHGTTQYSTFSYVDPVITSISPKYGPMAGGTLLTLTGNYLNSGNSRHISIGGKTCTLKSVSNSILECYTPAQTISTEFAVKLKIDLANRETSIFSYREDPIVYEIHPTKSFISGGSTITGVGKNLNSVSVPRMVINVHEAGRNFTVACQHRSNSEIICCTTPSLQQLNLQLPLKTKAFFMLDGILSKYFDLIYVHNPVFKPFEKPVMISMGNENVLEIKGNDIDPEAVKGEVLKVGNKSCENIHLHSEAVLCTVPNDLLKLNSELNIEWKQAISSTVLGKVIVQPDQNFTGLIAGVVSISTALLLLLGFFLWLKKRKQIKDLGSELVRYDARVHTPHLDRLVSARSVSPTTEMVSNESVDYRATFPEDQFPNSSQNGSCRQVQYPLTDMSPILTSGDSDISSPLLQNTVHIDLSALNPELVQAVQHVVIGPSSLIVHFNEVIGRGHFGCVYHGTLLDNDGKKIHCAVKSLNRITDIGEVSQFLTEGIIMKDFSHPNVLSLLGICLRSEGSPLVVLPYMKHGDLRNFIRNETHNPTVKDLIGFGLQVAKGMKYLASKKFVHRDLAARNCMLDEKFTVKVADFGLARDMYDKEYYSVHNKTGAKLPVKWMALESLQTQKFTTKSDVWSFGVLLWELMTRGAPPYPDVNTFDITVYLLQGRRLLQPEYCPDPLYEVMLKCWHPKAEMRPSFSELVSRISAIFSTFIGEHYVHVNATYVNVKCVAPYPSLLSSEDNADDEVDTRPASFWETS
Sequence of TIE2 (Q02763 23-1124, species assumed): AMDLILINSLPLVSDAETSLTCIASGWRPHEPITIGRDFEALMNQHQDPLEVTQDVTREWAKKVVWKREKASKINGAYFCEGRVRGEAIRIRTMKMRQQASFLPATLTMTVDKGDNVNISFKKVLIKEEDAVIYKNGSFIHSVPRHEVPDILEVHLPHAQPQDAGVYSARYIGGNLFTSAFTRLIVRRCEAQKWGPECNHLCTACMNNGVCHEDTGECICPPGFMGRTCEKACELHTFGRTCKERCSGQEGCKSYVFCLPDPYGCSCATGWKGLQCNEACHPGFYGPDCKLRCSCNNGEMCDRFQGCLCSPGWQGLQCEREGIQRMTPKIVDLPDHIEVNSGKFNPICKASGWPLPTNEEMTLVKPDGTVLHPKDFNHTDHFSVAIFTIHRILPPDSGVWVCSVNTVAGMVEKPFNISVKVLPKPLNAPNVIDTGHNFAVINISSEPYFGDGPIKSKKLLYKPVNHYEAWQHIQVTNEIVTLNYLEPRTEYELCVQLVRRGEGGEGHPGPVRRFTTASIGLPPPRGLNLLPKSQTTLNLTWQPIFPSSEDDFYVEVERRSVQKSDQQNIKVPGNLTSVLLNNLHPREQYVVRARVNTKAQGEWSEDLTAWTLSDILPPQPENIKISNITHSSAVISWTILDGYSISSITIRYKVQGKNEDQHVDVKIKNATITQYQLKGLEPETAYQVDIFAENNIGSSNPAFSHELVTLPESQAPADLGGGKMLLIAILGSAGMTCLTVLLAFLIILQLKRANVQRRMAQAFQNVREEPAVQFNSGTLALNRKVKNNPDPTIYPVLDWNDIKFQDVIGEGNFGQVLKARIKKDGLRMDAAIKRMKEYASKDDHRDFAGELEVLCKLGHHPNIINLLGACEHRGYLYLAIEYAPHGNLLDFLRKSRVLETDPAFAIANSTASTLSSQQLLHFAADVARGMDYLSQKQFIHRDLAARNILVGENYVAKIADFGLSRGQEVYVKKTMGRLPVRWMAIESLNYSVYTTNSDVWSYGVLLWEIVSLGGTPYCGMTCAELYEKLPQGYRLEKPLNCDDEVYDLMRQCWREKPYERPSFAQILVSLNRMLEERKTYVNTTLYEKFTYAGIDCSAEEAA
Sequence of FLT3 (P36888 27-993, species assumed): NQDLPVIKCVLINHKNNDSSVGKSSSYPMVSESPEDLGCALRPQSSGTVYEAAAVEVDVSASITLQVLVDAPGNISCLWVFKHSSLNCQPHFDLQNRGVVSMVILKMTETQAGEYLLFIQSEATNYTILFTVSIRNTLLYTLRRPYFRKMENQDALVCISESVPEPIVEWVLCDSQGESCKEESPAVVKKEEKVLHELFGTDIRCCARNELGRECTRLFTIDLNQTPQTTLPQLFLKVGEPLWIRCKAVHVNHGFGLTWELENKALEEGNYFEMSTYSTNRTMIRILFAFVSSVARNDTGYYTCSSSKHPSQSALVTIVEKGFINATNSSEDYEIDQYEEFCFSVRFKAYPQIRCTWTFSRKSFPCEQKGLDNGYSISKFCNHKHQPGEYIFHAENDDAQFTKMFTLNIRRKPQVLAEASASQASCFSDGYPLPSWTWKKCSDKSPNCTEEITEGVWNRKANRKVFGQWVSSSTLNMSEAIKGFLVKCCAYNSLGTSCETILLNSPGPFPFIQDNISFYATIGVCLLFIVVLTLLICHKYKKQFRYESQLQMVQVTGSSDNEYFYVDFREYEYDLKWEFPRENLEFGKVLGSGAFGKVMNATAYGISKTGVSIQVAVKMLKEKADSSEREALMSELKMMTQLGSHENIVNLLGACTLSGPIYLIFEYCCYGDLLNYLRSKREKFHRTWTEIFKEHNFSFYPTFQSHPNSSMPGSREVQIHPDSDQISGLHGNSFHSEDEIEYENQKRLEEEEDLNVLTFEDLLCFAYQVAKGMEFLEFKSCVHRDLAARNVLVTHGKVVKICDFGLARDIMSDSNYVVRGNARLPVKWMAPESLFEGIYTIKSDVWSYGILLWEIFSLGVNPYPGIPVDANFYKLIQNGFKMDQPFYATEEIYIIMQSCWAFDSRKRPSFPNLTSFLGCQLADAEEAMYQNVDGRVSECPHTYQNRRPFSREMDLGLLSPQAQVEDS

`OC[C@@H]1CCCN1Cc1onc(-c2ccc(F)cc2)c1-c1ccnc(NC2CCCCC2)n1` [V-05-014]: the inhibitory constant (Ki) is more than 1000 nM at PDK1; more than 1000 nM on LCK; 10 nM on JNK3; more than 1000 nM at EphA; more than 1000 nM at cMET; 15 nM at p38. Further, the Ki on COT is more than 1000 nM; at FAK, more than 1000 nM; at JNK2, 15 nM; at SYK it was more than 1000 nM; at TIE2, more than 1000 nM. In addition, the “Pulmonary Inflation Pressure (baseline)” value in assay [1] is 225±5 mmH2O. The “effect on ozone-induced potentiation of vagally mediated falls in heart rate” value (“effect … in heart rate” for short) in assay [2] is given as “prevented the ozone-induced potentiation of frequency induced falls in heart rate”. The “effect on ozone-induced potentiation of bronchoconstriction to intravenous acetylcholine” value (shortened to “effect … to intravenous acetylcholine”) in assay [3] is “not blocked”. The “effect on ozone-induced potentiation of vagally induced bronchoconstriction” value (“effect … of vagally induced bronchoconstriction” for short) in assay [4] was “completely prevented ozone-induced airway hyperreactivity”. Besides, the “effect on ozone-induced M2 receptor dysfunction” value in assay [5] is “completely protected M2 receptor function”.
In the case of `Fc1ccc(-c2noc(CN3CCCCC3)c2-c2ccnc(NC3CCCCC3)n2)cc1` [V-05-015], the Ki is more than 1000 nM at PDK1; more than 1000 nM on LCK; 8 nM on JNK3; more than 1000 nM at cMET; more than 1000 nM at JAK2; 4 nM on JNK2. Further, the Ki on SYK and at FLT3 was more than 1000 nM each time. Moreover, at p38 (read-out: IC50 p38 (footnote: this one value is an IC50, not a Ki)), the IC50 stood at 8 nM. Besides, the “Pulmonary Inflation Pressure (baseline)” value in assay [1] was found to be 213±7 mmH2O. The “effect … in heart rate” value in assay [2] is “prevented the ozone-induced potentiation of frequency induced falls in heart rate”. In addition, the “bronchoconstriction in response to intravenous acetylcholine” value in assay [3] (air-exposed, 30 mg/kg ip) is on record as “hyperreactive to intravenous acetylcholine”. In [3], the “effect … to intravenous acetylcholine” value is “attenuated ozone-induced smooth muscle hyperreactivity”. Besides, in [4], the “effect … of vagally induced bronchoconstriction” value is listed as “completely prevented ozone-induced airway hyperreactivity”. For the same molecule, in assay [5], the “effect on ozone-induced M2 receptor dysfunction” value was “completely protected M2 receptor function”.
As to `OC1CCN(Cc2onc(-c3ccc(F)cc3)c2-c2ccnc(NC3CCCCC3)n2)CC1` [V-05-013], the Ki at JNK3 was 5 nM; at EphA it was more than 1000 nM; on cMET, more than 1000 nM; at JAK2 it was more than 1000 nM; at p38, 13 nM; on JNK2 it was 10 nM. In addition, the Ki at SYK, on FLT3, at TIE2 and at ITK was more than 1000 nM each time. For the same molecule, the “Pulmonary Inflation Pressure (baseline)” value in assay [1] is listed as 190±15 ^‡ mmH2O. Further, the “effect … in heart rate” value in assay [2] is “prevented the ozone-induced potentiation of frequency induced falls in heart rate”. Also, the “effect … to intravenous acetylcholine” value in assay [3] is “not blocked”. For the same molecule, in [4], the “effect … of vagally induced bronchoconstriction” value was “completely prevented ozone-induced airway hyperreactivity”. Further, in assay [5], the “effect on ozone-induced M2 receptor dysfunction” value is listed as “partially prevented M2 receptor dysfunction”.
